pIC50: −log10 of the molar value. Read-outs that look alike come from different tables or passages of the source.
Biological target: human TPH1 (Homo sapiens (Human), UniProt P17752)
Test: Biochemical in vitro assay using fluorescence readout (TPH1 inhibition)
[1] = human TPH1, fluorescence readout
[2] = full length human TPH1, 40 μM L-tryptophan, 15° C., 60 minutes, fluorescence at 540 nm, mean if determined several times

human TPH1, sequence (P17752 whole entry): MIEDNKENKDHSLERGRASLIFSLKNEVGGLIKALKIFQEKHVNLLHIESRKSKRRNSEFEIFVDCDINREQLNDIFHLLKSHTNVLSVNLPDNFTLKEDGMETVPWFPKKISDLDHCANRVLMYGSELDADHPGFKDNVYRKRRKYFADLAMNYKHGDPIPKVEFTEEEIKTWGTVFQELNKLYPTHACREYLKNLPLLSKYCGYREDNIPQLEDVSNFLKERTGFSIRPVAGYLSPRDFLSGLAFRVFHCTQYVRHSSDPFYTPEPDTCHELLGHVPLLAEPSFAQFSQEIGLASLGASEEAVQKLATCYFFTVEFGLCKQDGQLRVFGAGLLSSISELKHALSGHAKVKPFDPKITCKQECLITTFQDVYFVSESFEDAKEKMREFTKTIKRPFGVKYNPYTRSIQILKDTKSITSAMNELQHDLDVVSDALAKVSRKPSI

| SMILES | pIC50 [1] | other results |
| --- | --- | --- |
| CCc1nc(Cl)ncc1OCC(=O)N1CCc2nc3sc(C)nn3c2[C@@H]1c1ncc(C)cc1F [Example 1.31.18, (R)-2-((2-chloro-4-ethylpyrimidin-5-yl)oxy)-1-(5-(3-fluoro-5-methylpyridin-2-yl)-2-methyl-7,8-dihydro-[1,3,4]thiadiazolo[2′,3′:2,3]imidazo[4,5-c]pyridin-6(5H)-yl)ethanone] | 7.31 | – |
| CCc1nc(NS(C)(=O)=O)ncc1OCC(=O)N1CCc2nc3sc(C)nn3c2[C@@H]1c1ncc(C)cc1F [Example 1.31.19, (R)-N-(4-ethyl-5-(2-(5-(3-fluoro-5-methylpyridin-2-yl)-2-methyl-7,8-dihydro-[1,3,4]thiadiazolo[2′,3′:2,3]imidazo[4,5-c]pyridin-6(5H)-yl)-2-oxoethoxy)pyrimidin-2-yl)methanesulfonamide] | 7.29 | – |
| COc1nc(NS(C)(=O)=O)ccc1OCC(=O)N1CCc2nc3sc(C)nn3c2[C@@H]1c1ncc(C)cc1F [Example 1.31.20, (R)-N-(5-(2-(5-(3-fluoro-5-methylpyridin-2-yl)-2-methyl-7,8-dihydro-[1,3,4]thiadiazolo[2′,3′:2,3]imidazo[4,5-c]pyridin-6(5H)-yl)-2-oxoethoxy)-6-methoxypyridin-2-yl)methanesulfonamide] | 7.11 | – |
| Cc1nn2c3c(nc2s1)CCN(C(=O)COc1ccc(N2CCOCC2)nc1Cl)C3c1scnc1C (stereo not shown) [Example 1.32.1, 2-((2-chloro-6-morpholinopyridin-3-yl)oxy)-1-(2-methyl-5-(4-methylthiazol-5-yl)-7,8-dihydro-[1,3,4]thiadiazolo [2′,3′:2,3]imidazo[4,5-c]pyridin-6(5H)-yl)ethanone] | 8.70 | – |
| Cc1nn2c3c(nc2s1)CCN(C(=O)COc1ccc(C#N)cc1Cl)C3c1scnc1C (stereo not shown) [Example 1.32.2, 3-chloro-4-(2-(2-methyl-5-(4-methylthiazol-5-yl)-7,8-dihydro-[1,3,4]thiadiazolo[2′,3′:2,3]imidazo[4,5-c]pyridin-6(5H)-yl)-2-oxoethoxy)benzonitrile] | 7.08 | – |
| Cc1nn2c3c(nc2s1)CCN(C(=O)COc1ccc(C(F)(F)F)cc1Cl)C3c1scnc1C (stereo not shown) [Example 1.32.3, 2-(2-chloro-4-(trifluoromethyl)phenoxy)-1-(2-methyl-5-(4-methylthiazol-5-yl)-7,8-dihydro-[1,3,4]thiadiazolo [2′,3′:2,3]imidazo[4,5-c]pyridin-6(5H)-yl)ethanone] | 8.00 | – |
| Cc1nn2c3c(nc2s1)CCN(C(=O)COc1ccc(C(F)(F)F)nc1Cl)C3c1scnc1C (stereo not shown) [Example 1.32.4, 2-((2-chloro-6-(trifluoromethyl)pyridin-3-yl)oxy)-1-(2-methyl-5-(4-methylthiazol-5-yl)-7,8-dihydro-[1,3,4]thiadiazolo [2′,3′:2,3]imidazo[4,5-c]pyridin-6(5H)-yl)ethanone] | 7.68 | – |
| Cc1nn2c3c(nc2s1)CCN(C(=O)COc1ccc(N2CCOCC2)nc1Cl)C3c1ncc(Cl)cc1F (stereo not shown) [Example 1.33.1, 1-(5-(5-chloro-3-fluoropyridin-2-yl)-2-methyl-7,8-dihydro[1,3,4]thiadiazolo[2′,3′:2,3]imidazo[4,5-c]pyridin-6(5H)-yl)-2-((2-chloro-6-morpholinopyridin-3-yl)oxy)ethanone] | 8.70 | – |
| Cc1nn2c3c(nc2s1)CCN(C(=O)COc1ccc(N2CC(F)(F)C2)nc1Cl)C3c1ncc(Cl)cc1F (stereo not shown) [Example 1.33.2, 1-(5-(5-chloro-3-fluoropyridin-2-yl)-2-methyl-7,8-dihydro-[1,3,4]thiadiazolo[2′,3′:2,3]imidazo[4,5-c]pyridin-6(5H)-yl)-2-((2-chloro-6-(3,3-difluoroazetidin-1-yl)pyridin-3-yl)oxy)ethanone] | 8.40 | – |
| Cc1nn2c3c(nc2s1)CCN(C(=O)COc1ccc(C(=O)N(C)C)nc1Cl)C3c1ncc(Cl)cc1F (stereo not shown) [Example 1.33.3, 6-chloro-5-(2-(5-(5-chloro-3-fluoropyridin-2-yl)-2-methyl-7,8-dihydro-[1,3,4]thiadiazolo[2′,3′:2,3]imidazo[4,5-c]pyridin-6(5H)-yl)-2-oxoethoxy)-N,N-dimethylpicolinamide] | 8.22 | – |
| Cc1nn2c3c(nc2s1)CCN(C(=O)COc1ccc(C(N)=O)nc1Cl)C3c1ncc(Cl)cc1F (stereo not shown) [Example 1.33.4, 6-chloro-5-(2-(5-(5-chloro-3-fluoropyridin-2-yl)-2-methyl-7,8-dihydro-[1,3,4]thiadiazolo[2′,3′:2,3]imidazo[4,5-c]pyridin-6(5H)-yl)-2-oxoethoxy)picolinamide] | 8.15 | – |
| CNC(=O)c1ccc(OCC(=O)N2CCc3nc4sc(C)nn4c3C2c2ncc(Cl)cc2F)c(Cl)n1 (stereo not shown) [Example 1.33.5, 6-chloro-5-(2-(5-(5-chloro-3-fluoropyridin-2-yl)-2-methyl-7,8-dihydro-[1,3,4]thiadiazolo[2′,3′:2,3]imidazo[4,5-c]pyridin-6(5H)-yl)-2-oxoethoxy)-N-methylpicolinamide] | 8.22 | – |
| Cc1nn2c3c(nc2s1)CCN(C(=O)COc1ccc(NS(C)(=O)=O)nc1Cl)C3c1ncc(Cl)cc1F (stereo not shown) [Example 1.33.6, N-(6-chloro-5-(2-(5-(5-chloro-3-fluoropyridin-2-yl)-2-methyl-7,8-dihydro-[1,3,4]thiadiazolo[2′,3′:2,3]imidazo[4,5-c]pyridin-6(5H)-yl)-2-oxoethoxy)pyridin-2-yl)methanesulfonamide] | 8.22 | – |
| Cc1nn2c3c(nc2s1)CCN(C(=O)COc1ccc(NS(C)(=O)=O)cc1Cl)C3c1ncc(Cl)cc1F (stereo not shown) [Example 1.33.7, N-(3-chloro-4-(2-(5-(5-chloro-3-fluoropyridin-2-yl)-2-methyl-7,8-dihydro-[1,3,4]thiadiazolo[2′,3′:2,3]imidazo[4,5-c]pyridin-6(5H)-yl)-2-oxoethoxy)phenyl)methanesulfonamide] | 7.89 | – |
| Cc1nn2c3c(nc2s1)CCN(C(=O)COc1ccc(N2CCOCC2)nc1Cl)C3c1cnc(C(=O)N(C)C)s1 (stereo not shown) [Example 1.34.1, 5-(6-(2-((2-chloro-6-morpholinopyridin-3-yl)oxy)acetyl)-2-methyl-5,6,7,8-tetrahydro-[1,3,4]thiadiazolo[2′,3′:2,3]imidazo[4,5-c]pyridin-5-yl)-N,N-dimethylthiazole-2-carboxamide] | 8.22 | – |
| Cc1nn2c3c(nc2s1)CCN(C(=O)COc1ccc(C(=O)N(C)C)nc1Cl)C3c1cnc(C(=O)N(C)C)s1 (stereo not shown) [Example 1.34.2, 5-(6-(2-((2-chloro-6-(dimethylcarbamoyl)pyridin-3-yl)oxy)acetyl)-2-methyl-5,6,7,8-tetrahydro-[1,3,4]thiadiazolo [2′,3′:2,3]imidazo[4,5-c]pyridin-5-yl)-N,N-dimethylthiazole-2-carboxamide] | 8.05 | – |
| Cc1nn2c3c(nc2s1)CCN(C(=O)COc1ccc(NS(C)(=O)=O)nc1Cl)C3c1cnc(C(=O)N(C)C)s1 (stereo not shown) [Example 1.34.3, 5-(6-(2-((2-chloro-6-(methylsulfonamido)pyridin-3-yl)oxy)acetyl)-2-methyl-5,6,7,8-tetrahydro-[1,3,4]thiadiazolo [2′,3′:2,3]imidazo[4,5-c]pyridin-5-yl)-N,N-dimethylthiazole-2-carboxamide] | 6.98 | – |
| Cc1nn2c3c(nc2s1)CCN(C(=O)COc1ccc(N2CCOCC2)nc1Cl)C3c1ncccc1F (stereo not shown) [Example 1.35.1, 2-((2-chloro-6-morpholinopyridin-3-yl)oxy)-1-(5-(3-fluoropyridin-2-yl)-2-methyl-7,8-dihydro-[1,3,4]thiadiazolo [2′,3′:2,3]imidazo[4,5-c]pyridin-6(5H)-yl)ethanone] | 8.22 | – |
| Cc1nn2c3c(nc2s1)CCN(C(=O)COc1ccc(C(=O)N(C)C)nc1Cl)C3c1ncccc1F (stereo not shown) [Example 1.35.2, 6-chloro-5-(2-(5-(3-fluoropyridin-2-yl)-2-methyl-7,8-dihydro-[1,3,4]thiadiazolo[2′,3′:2,3]imidazo[4,5-c]pyridin-6(5H)-yl)-2-oxoethoxy)-N,N-dimethylpicolinamide] | 7.35 | – |
| CNC(=O)c1ccc(OCC(=O)N2CCc3nc4sc(C)nn4c3C2c2ncccc2F)c(Cl)n1 (stereo not shown) [Example 1.35.3, 6-chloro-5-(2-(5-(3-fluoropyridin-2-yl)-2-methyl-7,8-dihydro-[1,3,4]thiadiazolo[2′,3′:2,3]imidazo[4,5-c]pyridin-6(5H)-yl)-2-oxoethoxy)-N-methylpicolinamide] | 7.54 | – |
| Cc1nn2c3c(nc2s1)CCN(C(=O)COc1ccc(NS(C)(=O)=O)nc1Cl)C3c1ncccc1F (stereo not shown) [Example 1.35.4, N-(6-chloro-5-(2-(5-(3-fluoropyridin-2-yl)-2-methyl-7,8-dihydro-[1,3,4]thiadiazolo[2′,3′:2,3]imidazo[4,5-c]pyridine-6(5H)-yl)-2-oxoethoxy)pyridin-2-l)methanesulfonamide] | – | pIC50: 7.46 |
| Cc1nn2c3c(nc2s1)CCN(C(=O)COc1ccc(N2CCOCC2)nc1Cl)C3c1ccc(CN(C)C)s1 (stereo not shown) [Example 1.36.1, 2-((2-Chloro-6-morpholinopyridin-3-yl)oxy)-1-(5-(5-((dimethylamino)-methyl)thiophen-2-yl)-2-methyl-7,8-dihydro-[1,3,4]thiadiazolo[2′,3′:2,3]imidazo[4,5-c]pyridin-6(5H)-yl)-ethanone] | – | pIC50 [2]: 6.42 |
| CNC(=O)c1ccc(OCC(=O)N2CCc3nc4sc(C)nn4c3C2c2ncc(C(=O)N(C)C)s2)c(Cl)n1 (stereo not shown) [Example 1.37.1, 2-(6-(2-((2-Chloro-6-(methylcarbamoyl)pyridin-3-yl)oxy)acetyl)-2-methyl-5,6,7,8-tetra-hydro-[1,3,4]thiadiazolo[2′,3′:2,3]imidazo[4,5-c]pyridin-5-yl)-N,N-dimethylthiazole-5-carboxamide] | – | pIC50 [2]: 6.75 |
| Cc1nn2c3c(nc2s1)CCN(C(=O)COc1ccc(N2CC(F)(F)C2)nc1Cl)C3c1ncc(C(=O)N(C)C)s1 (stereo not shown) [Example 1.37.2, 2-(6-(2-((2-Chloro-6-(3,3-difluoroazetidin-1-yl)pyridin-3-yl)oxy)acetyl)-2-methyl-5,6,7,8-tetrahydro-[1,3,4]thiadiazolo[2′,3′:2,3]imidazo[4,5-c]pyridin-5-yl)-N,N-dimethylthiazole-5-carboxamide] | – | pIC50 [2]: 7.29 |
| Cc1nn2c3c(nc2s1)CCN(C(=O)COc1ccc(NS(C)(=O)=O)nc1Cl)C3c1ncc(C(=O)N(C)C)s1 (stereo not shown) [Example 1.37.3, 2-(6-(2-((2-Chloro-6-(methylsulfonamido)pyridin-3-yl)oxy)acetyl)-2-methyl-5,6,7,8-tetrahydro-[1,3,4]thiadiazolo[2′,3′:2,3]imidazo[4,5-c]pyridin-5-yl)-N,N-dimethylthiazole-5-carboxamide] | – | pIC50 [2]: 7.40 |
